Source: patent US20110237538A1, “TREATMENT OF LYSOSOMAL STORAGE DISORDERS AND OTHER PROTEOSTATIC DISEASES” (SUMMIT CORPORATION PLC, priority 2008, published 2011)
One block for each compound: values may come before it.

Legend:
alpha-galactosidase = assay: enzyme enhancement assay, cell based screening for chaperones (Fabry lymphoblasts GM04391); design: species or system human; details: Fabry patient lymphoblasts (GM04391), dosed 0.3-100 μM, 72 hr; relative to vehicle
[1] = target: T1, Jack bean α-D-mannosidase (Canavalia ensiformis, UniProt C0HJB3); assay: α-mannosidase activity assay with p-nitrophenyl-α-D-mannopyranoside (Example 1); format: biochemical; details: Jack Bean α-mannosidase, p-nitrophenyl-α-D-mannopyranoside as the substrate
T1 construct: purchased Sigma M7257
T1 sequence (C0HJB3 1-981): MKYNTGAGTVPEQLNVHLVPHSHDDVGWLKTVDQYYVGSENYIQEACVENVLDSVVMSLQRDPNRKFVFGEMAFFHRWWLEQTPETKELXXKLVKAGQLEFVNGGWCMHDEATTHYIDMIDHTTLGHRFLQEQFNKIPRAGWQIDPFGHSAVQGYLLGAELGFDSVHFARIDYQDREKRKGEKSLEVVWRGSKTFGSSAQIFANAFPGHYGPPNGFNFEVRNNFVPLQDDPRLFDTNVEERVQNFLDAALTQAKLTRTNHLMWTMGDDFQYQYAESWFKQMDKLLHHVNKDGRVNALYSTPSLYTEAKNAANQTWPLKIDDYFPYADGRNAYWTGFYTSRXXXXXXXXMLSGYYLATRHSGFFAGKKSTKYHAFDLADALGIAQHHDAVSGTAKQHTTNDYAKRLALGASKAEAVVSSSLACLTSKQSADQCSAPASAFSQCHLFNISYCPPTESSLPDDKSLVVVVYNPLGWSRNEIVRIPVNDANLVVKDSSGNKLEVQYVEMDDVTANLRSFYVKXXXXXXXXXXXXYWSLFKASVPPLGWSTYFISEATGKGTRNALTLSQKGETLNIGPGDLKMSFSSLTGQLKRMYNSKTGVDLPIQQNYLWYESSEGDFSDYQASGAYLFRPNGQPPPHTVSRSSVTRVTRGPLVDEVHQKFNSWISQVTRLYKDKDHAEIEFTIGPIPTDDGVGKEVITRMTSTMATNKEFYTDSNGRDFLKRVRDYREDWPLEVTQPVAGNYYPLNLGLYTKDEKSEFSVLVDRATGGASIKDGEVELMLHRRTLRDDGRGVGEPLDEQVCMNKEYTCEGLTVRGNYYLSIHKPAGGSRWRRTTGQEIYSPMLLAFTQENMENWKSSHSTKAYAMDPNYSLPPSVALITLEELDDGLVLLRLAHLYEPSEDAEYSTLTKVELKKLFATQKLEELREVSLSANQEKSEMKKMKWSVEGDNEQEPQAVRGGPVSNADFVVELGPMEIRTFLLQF
Procedure: Solutions of 0.2M Mcllvane buffer at pH 4.5 and 5 mM p-nitrophenyl-α-D-mannopyranoside (Sigma, N2127), dissolved in the buffer, were prepared. A solution of Jack bean α-D-mannosidase enzyme (Sigma, M7257, 22 Units/mg, 6.2 mg/ml.) was also prepared at 0.6 Units/ml in the buffer.
The incubation mixture consisted of 10 μl enzyme solution, 10 μl of 1 mg/ml aqueous iminosugar solution and 50 μl of 5 mM substrate made up in buffer at the optimum pH for the enzyme. The reactions were stopped by addition of 70 μl 0.4M glycine (pH 10.4) during the exponential phase of the reaction, which had been determined at the beginning using uninhibited assays in which water replaced inhibitor. Final absorbances were read at 405 nm using a Versamax microplate reader (Molecular Devices). Assays were carried out in triplicate, and the values given are means of the three replicates. Results were expressed as a percentage of uninhibited assays in which water replaced inhibitor.

[2] = system: beta-glucocerebrosidase (N370S GM01873, L444P GM08752); assay: enzyme enhancement assay, cell based screening for chaperones (Gaucher lymphoblasts); design: species or system human; details: Gaucher patient lymphoblasts, dosed 0.3-100 μM, 72 hr; relative to vehicle, normalised against total protein
beta-glucuronidase = target: T2, beta-glucuronidase (Homo sapiens, UniProt P08236); assay: inhibition of beta-glucuronidase (Example 3); format: biochemical
T2 sequence (P08236 23-651): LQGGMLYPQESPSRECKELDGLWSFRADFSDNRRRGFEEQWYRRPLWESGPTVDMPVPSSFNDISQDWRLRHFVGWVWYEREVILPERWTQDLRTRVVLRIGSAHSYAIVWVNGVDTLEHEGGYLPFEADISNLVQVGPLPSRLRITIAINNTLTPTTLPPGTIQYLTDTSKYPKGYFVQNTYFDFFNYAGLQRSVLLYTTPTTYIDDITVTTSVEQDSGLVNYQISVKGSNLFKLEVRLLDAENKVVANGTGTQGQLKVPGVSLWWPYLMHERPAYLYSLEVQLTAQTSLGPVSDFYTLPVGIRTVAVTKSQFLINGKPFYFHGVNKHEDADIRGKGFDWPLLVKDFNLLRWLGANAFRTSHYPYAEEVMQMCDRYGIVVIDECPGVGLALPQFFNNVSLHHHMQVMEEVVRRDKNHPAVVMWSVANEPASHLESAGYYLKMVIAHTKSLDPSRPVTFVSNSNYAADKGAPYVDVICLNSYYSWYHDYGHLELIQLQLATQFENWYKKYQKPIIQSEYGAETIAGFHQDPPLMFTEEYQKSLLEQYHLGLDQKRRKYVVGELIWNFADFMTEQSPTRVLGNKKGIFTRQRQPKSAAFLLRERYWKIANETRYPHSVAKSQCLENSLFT
From the text: (§1) This compound, for example, might therefore show therapeutic activity for mucopolysaccharidosis type 1.

alpha-L-iduronidase = target: T3, alpha-L-iduronidase (Homo sapiens, UniProt P35475); assay: inhibition of alpha-L-iduronidase (Example 3); format: biochemical
T3 sequence (P35475 28-653): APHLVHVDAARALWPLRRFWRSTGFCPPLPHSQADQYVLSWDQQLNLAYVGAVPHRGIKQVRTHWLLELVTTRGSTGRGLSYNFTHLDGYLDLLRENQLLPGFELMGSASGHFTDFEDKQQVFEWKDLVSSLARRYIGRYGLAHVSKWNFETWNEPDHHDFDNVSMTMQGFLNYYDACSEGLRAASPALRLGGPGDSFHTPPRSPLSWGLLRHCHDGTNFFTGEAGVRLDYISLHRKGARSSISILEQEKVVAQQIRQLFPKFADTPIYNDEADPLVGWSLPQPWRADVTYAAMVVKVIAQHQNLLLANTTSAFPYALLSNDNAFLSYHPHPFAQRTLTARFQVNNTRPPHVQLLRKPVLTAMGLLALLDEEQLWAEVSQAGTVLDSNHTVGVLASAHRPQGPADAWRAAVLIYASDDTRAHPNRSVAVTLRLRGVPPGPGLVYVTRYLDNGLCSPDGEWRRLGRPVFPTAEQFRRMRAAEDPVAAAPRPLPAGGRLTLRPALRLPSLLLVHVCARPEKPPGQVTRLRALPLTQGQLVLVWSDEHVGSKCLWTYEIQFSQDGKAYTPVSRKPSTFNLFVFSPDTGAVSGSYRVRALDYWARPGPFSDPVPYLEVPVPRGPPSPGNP
From the text: as §1

[3] = system: the other 14 glycosidases described in Example 2; assay: glycosidase panel of Example 2 (selectivity); format: biochemical
Procedure: The assays were conducted as described by Watson et al. 1997, Phytochemistry 46: 255-259 using p-nitrophenyl-substrates. Assays were carried out in microtitre plates. Enzymes were assayed in 0.1M citric acid/0.2M di-sodium hydrogen phosphate (Mcllvaine) buffers at the optimum pH for the enzyme. All assays were carried out at 20° C. All enzymes and substrates were purchased from Sigma Aldrich Chemicals Limited. The incubation mixture consisted of 10 μl of enzyme solution, 10 μl of the iminosugars solution (made up in deionised water at 5 mM) and 50 μl of the appropriate 5 mM p-nitrophenyl substrate made up in McIlvaine buffer at the optimum pH for the enzyme. The reactions were stopped with 0.4M glycine (pH 10.4) during the exponential phase of the reaction, which was determined at the beginning of the assay using blanks with water, which were incubated for a range of time periods to measure the reaction rate using 5 mM substrate solution. Absorbances were read at 405 nm. Water was substituted for the inhibitors in the blanks. […]

[4] = target: T4, wild type (wt) beta-glucocerebrosidase (Homo sapiens, UniProt P04062); assay: beta-glucocerebrosidase activity assay in HL60 lysate (4MU-β-D-glc); format: biochemical; details: at a concentration of 100 μM, 0.5 mM 4MU-β-D-glc;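 further: fluorometric read-out of 4MU liberated from the substrate (ex 360 nm, em 450 nm) after 37 °C incubation, reaction stopped with sodium carbonate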
T4 construct: The lysates were used as a source for wild type (wt) beta-glucocerebrosidase; endogenous in cells; host or cells: HL60 (ECACC No. 98070106) lysate
T4 sequence (P04062 40-536): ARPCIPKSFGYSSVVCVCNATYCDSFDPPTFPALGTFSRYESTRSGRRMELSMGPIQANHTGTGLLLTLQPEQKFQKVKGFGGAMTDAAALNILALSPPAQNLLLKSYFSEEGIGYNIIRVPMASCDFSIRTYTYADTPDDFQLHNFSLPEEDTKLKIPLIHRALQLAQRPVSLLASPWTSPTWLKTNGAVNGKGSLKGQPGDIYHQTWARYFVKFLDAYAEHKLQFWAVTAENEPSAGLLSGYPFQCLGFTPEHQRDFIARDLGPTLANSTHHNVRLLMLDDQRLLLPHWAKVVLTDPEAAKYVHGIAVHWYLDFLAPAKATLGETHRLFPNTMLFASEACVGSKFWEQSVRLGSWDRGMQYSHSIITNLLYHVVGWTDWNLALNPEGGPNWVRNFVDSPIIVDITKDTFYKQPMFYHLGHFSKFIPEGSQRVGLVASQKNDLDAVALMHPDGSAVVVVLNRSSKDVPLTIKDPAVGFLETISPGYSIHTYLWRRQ

[5] = target: T5, α-L-fucosidase (bovine kidney) (Bos taurus, UniProt Q2KIM0); assay: glycosidase assay with p-nitrophenyl substrates (Example 2); format: biochemical; details: 10 μl of 5 mM iminosugar solution in 70 μl incubation mixture; 20° C.
T5 construct: purchased Sigma Aldrich Chemicals Limited; host or cells: bovine kidney
T5 sequence (Q2KIM0 23-468): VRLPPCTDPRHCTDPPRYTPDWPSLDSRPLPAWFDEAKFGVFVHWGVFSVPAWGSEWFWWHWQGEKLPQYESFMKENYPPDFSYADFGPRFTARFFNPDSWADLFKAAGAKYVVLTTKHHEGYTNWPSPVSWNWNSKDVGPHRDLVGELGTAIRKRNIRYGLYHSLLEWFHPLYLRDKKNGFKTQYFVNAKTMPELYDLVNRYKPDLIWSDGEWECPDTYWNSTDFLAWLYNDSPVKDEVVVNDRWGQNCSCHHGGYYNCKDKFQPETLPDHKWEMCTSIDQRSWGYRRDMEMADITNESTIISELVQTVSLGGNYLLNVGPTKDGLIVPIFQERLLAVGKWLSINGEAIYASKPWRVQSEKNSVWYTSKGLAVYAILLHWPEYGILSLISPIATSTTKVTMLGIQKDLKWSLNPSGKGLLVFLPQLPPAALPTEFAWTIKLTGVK
Procedure: (§2) The assays were conducted as described by Watson et al. 1997, Phytochemistry 46: 255-259 using p-nitrophenyl-substrates. Assays were carried out in microtitre plates. Enzymes were assayed in 0.1M citric acid/0.2M di-sodium hydrogen phosphate (Mcllvaine) buffers at the optimum pH for the enzyme. All assays were carried out at 20° C. All enzymes and substrates were purchased from Sigma Aldrich Chemicals Limited. The incubation mixture consisted of 10 μl of enzyme solution, 10 μl of the iminosugars solution (made up in deionised water at 5 mM) and 50 μl of the appropriate 5 mM p-nitrophenyl substrate made up in McIlvaine buffer at the optimum pH for the enzyme. The reactions were stopped with 0.4M glycine (pH 10.4) during the exponential phase of the reaction, which was determined at the beginning of the assay using blanks with water, which were incubated for a range of time periods to measure the reaction rate using 5 mM substrate solution. Absorbances were read at 405 nm. Water was substituted for the inhibitors in the blanks.
(§3) The glycosidases used were α-D-glucosidase (yeast), α-D-glucosidase (Bacillus sterothermophilus), α-D-glucosidase (rice), amyloglucosidase (Aspergillus niger), β-D-glucosidase (almond), α-D-galactosidase (green coffee beans), β-D-galactosidase (bovine liver), α-L-fucosidase (bovine kidney), α-D-mannosidase (Jack bean), β-D-mannosidase (Cellullomonas fimi), Naringinase (Penicillium decumbens), N-acetyl-β-D-glucosaminidase (Bovine kidney), N-acetyl-β-D-glucosaminidase (Aspergillus oryzae) and N-acetyl-β-D-glucosaminidase (Jack bean)

[6] = system: α-D-glucosidase (Bacillus sterothermophilus); assay: as above; format: biochemical; details: 10 μl of 5 mM iminosugar solution in 70 μl incubation mixture; 20° C.
Procedure: as §2, §3

[7] = target: T6, α-D-galactosidase (green coffee beans) (Coffea arabica, UniProt Q42656); assay: as above; format: biochemical; details: 10 μl of 5 mM iminosugar solution in 70 μl incubation mixture; 20° C.; read-out: Promotion of glycosidase activity: α-D-galactosidase (Green coffee bean)
T6 construct: purchased Sigma Aldrich Chemicals Limited
T6 sequence (Q42656 16-378): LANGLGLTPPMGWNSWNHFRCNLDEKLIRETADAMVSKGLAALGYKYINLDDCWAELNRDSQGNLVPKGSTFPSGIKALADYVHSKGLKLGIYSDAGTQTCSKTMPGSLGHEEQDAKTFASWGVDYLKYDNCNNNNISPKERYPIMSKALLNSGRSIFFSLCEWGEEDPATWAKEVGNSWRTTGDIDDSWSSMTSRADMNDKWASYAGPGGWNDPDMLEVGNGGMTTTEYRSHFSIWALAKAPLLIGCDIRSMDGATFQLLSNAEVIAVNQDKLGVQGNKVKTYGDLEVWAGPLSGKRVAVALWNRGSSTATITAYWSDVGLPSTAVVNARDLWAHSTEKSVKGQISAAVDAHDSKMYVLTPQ
Procedure: as §2, §3

- promotion of the mannosidase activity (in words) [1]: promotion of the mannosidase activity
SMILES: C[C@@]1(O)CN[C@H](CO)[C@@H](O)[C@@H]1O [Compound 201, (2R,3R,4S,5R)-2-(hydroxymethyl)-5-methylpiperidine-3,4,5-triol]
- increased enzyme activity (alpha-galactosidase) (alpha-galactosidase): > 201%
- increased enzyme activity (beta-glucocerebrosidase) [2]: > 201%

- inhibition of beta-glucuronidase (in words) (beta-glucuronidase): specific inhibitor
SMILES: O=C(O)[C@H]1NC[C@H](O)[C@@H](O)[C@@H]1O [Compound 7, (2S,3R,4R,5S)-3,4,5-trihydroxypiperidine-2-carboxylic acid]

SMILES: O=C(O)[C@@H]1[C@@H](O)[C@H](O)[C@H]2[C@@H](O)CCN21 [Compound 56, (1R,2R,3S,7S,7aR)-1,2,7-trihydroxyhexahydro-1H-pyrrolizine-3-carboxylic acid]
- inhibition of alpha-L-iduronidase (in words) (alpha-L-iduronidase): potently inhibited
- inhibition of the other 14 glycosidases described in Example 2 (in words) [3]: none

SMILES: O[C@@H]1C[C@H]2CC[C@](O)(N2)[C@H]1O [Compound 20, (1R,2S,3R,5R)-8-azabicyclo[3.2.1]octane-1,2,3-triol]
- increased enzyme activity (alpha-galactosidase) (alpha-galactosidase): > 20%
- inhibition at 100 µM [4]: > 50%
- increased enzyme activity (beta-glucocerebrosidase) [2]: > 20%

SMILES: CCCCCCCCCN1C[C@H](O)[C@H](O)[C@@H]1[C@H](O)[C@H](O)CO [Compound 324, (1S,2R)-1-((2R,3R,4S)-3,4-dihydroxy-1-nonylpyrrolidin-2-yl)propane-1,2,3-triol]
- Promotion of glycosidase activity: α-L-fucosidase (Bovine kidney) [5]: 42 % increase in absorbance compared to the water controls
- Promotion of glycosidase activity: α-D-glucosidase (Bacillus sterothermophilus) [6]: 150 % increase in absorbance compared to the water controls
- activation at 714 µM [7]: 42%
